{
  "source": "patent US6525178B2",
  "about": "“PGC-1, a novel brown fat PPARgamma coactivator” (Dana-Farber Cancer Institute, priority 1997, dated 2003)",
  "key": {"PPARδ": {"target": "T1, PPARδ (Homo sapiens, UniProt Q03181)", "T1 construct": "made in house; host or cells: receptor: reticulocyte lysate in vitro translation (Promega TNT); GST-PGC-1: E. coli", "T1 sequence (Q03181 1-441)": "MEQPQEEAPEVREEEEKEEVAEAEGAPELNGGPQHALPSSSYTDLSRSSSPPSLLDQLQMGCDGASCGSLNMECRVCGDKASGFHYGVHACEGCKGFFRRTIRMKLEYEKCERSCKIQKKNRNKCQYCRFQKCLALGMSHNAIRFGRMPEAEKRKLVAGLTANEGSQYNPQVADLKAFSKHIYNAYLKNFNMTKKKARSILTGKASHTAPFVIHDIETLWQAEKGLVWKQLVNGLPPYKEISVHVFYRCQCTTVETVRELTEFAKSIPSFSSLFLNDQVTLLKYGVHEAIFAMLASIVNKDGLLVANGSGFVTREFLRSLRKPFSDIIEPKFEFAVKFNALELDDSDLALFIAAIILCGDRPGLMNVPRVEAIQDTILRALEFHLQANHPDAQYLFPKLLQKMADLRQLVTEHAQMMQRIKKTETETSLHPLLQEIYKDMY", "T1 sequence (O70343 36-797 partner limits assumed)": "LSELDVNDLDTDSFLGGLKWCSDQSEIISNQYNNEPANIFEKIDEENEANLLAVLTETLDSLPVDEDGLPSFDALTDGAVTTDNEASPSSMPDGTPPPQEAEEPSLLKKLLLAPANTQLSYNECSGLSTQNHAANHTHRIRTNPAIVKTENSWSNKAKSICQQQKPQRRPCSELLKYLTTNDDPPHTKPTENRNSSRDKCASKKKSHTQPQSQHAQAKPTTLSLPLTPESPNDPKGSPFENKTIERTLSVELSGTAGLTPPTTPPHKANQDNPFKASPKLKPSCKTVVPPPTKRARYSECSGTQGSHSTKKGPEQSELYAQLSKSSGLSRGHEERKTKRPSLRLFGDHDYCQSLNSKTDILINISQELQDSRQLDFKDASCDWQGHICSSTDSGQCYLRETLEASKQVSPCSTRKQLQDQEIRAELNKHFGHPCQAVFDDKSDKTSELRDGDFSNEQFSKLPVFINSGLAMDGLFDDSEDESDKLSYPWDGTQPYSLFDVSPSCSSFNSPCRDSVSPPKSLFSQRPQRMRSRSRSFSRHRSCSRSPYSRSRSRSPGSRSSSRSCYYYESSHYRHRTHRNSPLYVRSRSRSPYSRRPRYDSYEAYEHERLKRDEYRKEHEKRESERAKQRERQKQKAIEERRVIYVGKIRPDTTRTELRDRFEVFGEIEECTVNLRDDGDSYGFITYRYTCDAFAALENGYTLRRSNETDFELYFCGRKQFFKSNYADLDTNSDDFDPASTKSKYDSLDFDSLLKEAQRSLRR", "test": "In vitro binding of GST-PGC-1 to in vitro-translated nuclear receptor", "details": "ligand 1 μM", "description": "(§1) The assays were carried out as follows."}, "HIB 1B brown fat cells": {"test_system": "HIB 1B brown fat cells", "test": "Northern analysis of PGC-1 and UCP-1 mRNA in treated HIB 1B brown fat cells", "format": "cell-based, mouse", "details": "HIB 1B cells, 1 μM, 10 hr", "description": "Cold is sensed in the central nervous system and results in increased sympathetic output to peripheral tissues, including muscle and brown fat Himms-Hagen (1989) Can. J. Physiol Pharmcol. 67:394-401). Cold exposure can be mimicked, in terms of brown adipocyte precursor cell growth and the induction of UCP-1, by exposure of cultured brown fat cells to β-adrenergic agonists (Rehnmark et al. (1990) J. Biol. Chem. 25:16464-16471). To determine if PGC-1 gene expression is also sensitive to β-adrenergic agonists, HIB 1B brown fat cells were treated with isoproterenol (1 μM), a nonsubtype selective β agonist, for 10 hr. Total cellular RNA was isolated and analyzed using PGC-1 and UCP-1 cDNA probes.\nBriefly, HIB 1B brown fat preadipocytes were differentiated as described herein. After 6 days, cells were approximately 80% differentiated."}, "retinoic acid receptor": {"target": "T2, retinoic acid receptor (Homo sapiens, UniProt P10276)", "T2 sequence (P10276 1-462)": "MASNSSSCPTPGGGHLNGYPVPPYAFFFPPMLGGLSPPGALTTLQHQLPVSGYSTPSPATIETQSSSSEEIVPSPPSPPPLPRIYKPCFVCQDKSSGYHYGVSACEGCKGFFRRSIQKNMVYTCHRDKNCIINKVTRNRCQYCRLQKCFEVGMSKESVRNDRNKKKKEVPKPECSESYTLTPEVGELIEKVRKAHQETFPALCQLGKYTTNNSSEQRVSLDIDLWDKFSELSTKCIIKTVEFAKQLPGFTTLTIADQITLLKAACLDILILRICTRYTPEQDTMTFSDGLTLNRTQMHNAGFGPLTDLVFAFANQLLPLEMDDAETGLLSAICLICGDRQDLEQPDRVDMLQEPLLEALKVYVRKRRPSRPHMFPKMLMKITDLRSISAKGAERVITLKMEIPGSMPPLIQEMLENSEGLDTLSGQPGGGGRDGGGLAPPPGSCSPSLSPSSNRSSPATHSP", "T2 sequence (O70343 36-797 partner limits assumed)": "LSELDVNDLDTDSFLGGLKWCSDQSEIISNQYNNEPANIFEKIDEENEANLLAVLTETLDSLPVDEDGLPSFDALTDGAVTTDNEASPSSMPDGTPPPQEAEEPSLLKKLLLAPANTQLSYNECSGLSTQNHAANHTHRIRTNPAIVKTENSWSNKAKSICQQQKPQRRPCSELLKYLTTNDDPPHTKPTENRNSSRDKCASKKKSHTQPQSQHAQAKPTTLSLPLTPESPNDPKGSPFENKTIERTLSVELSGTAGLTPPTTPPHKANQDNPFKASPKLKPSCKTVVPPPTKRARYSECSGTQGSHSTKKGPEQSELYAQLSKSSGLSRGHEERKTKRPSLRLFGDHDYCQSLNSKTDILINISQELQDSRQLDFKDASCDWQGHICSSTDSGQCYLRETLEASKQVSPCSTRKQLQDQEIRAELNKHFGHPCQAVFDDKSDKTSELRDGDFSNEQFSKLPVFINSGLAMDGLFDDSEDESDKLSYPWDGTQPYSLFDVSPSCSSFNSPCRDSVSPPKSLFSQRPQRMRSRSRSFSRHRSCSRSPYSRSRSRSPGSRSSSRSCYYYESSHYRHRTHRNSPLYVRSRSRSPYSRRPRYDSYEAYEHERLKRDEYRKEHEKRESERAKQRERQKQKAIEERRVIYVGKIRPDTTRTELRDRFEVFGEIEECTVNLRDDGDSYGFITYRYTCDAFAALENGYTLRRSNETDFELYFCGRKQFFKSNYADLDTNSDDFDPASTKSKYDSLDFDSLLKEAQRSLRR", "test": "In vitro binding of GST-PGC-1 to in vitro-translated nuclear receptor", "details": "ligand 1 μM", "method": "These fusion proteins were expressed, and purified from E. coli on beads containing approximately 1 μg of protein (either GST, or alone, or fused to PGC-1), 30 μl was resuspended i the binding buffer (20 mM HEPES [pH 7.7], 75 mM KCl, 0.1 mM EDTA, 2.5 mM MgCl2, 0.05% NP40,2 mM DTT, 10% glycerol).\nThe assays were carried out as follows. […] After electrophoresis, fixation, and enhancement, the radiolabeled proteins were visualized by autoradiography."}, "PPARα": {"target": "T3, PPARα (Homo sapiens, UniProt Q07869)", "T3 construct": "made in house; host or cells: receptor: reticulocyte lysate in vitro translation (Promega TNT); GST-PGC-1: E. coli", "T3 sequence (Q07869 1-468)": "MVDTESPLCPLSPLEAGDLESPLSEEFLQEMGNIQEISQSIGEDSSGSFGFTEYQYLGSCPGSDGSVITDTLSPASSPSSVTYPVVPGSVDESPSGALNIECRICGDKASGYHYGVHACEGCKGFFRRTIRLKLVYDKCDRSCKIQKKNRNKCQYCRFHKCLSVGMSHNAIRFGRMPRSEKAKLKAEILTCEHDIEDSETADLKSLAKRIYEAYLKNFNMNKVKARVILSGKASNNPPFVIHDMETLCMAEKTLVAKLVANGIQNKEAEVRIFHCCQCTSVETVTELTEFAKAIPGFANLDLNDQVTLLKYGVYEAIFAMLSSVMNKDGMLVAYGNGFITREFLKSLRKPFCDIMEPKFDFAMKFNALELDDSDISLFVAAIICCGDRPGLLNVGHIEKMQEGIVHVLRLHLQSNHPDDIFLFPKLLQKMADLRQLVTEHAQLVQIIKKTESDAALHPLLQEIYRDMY", "T3 sequence (O70343 36-797 partner limits assumed)": "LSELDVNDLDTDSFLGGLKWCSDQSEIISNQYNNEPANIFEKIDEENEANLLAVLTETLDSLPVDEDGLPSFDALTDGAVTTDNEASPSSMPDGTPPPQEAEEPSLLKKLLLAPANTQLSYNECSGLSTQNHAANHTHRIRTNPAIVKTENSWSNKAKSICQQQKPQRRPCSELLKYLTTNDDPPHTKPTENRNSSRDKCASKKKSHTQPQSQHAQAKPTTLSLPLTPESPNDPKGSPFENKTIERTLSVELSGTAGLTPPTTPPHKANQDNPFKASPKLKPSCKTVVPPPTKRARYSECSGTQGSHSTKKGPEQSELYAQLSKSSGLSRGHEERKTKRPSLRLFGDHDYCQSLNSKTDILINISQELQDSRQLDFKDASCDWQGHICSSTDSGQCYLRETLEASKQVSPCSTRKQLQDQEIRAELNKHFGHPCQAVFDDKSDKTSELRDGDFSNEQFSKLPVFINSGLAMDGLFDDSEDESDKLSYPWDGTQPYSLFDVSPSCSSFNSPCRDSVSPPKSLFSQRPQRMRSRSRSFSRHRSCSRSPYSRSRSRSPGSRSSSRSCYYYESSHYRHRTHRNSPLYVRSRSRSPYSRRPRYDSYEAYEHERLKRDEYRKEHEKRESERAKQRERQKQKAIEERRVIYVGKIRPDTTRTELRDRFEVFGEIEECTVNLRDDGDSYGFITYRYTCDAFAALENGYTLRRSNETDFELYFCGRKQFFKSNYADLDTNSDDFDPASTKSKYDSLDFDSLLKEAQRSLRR", "test": "In vitro binding of GST-PGC-1 to in vitro-translated nuclear receptor", "details": "ligand 1 μM", "description": "as §1"}, "PPARγ": {"test_system": "PPARγ", "sequence (P37238 183-505 limits assumed)": "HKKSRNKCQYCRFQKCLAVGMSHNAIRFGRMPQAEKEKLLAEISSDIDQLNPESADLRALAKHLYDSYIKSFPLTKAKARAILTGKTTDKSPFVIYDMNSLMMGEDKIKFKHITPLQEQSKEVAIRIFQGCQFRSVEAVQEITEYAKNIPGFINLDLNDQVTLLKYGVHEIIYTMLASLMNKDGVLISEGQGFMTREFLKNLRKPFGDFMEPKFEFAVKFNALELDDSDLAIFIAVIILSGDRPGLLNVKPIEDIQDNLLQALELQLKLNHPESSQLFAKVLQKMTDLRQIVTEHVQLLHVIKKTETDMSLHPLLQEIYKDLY", "test": "Binding of in vitro-translated PGC-1 C-terminal deletions to immobilized PPARγ fusion protein", "design": "species or system mouse", "details": "35S-labelled PGC-1 deletions", "description": "The interaction between nuclear receptors and certain coactivators such as SRC-1 or CBP is ligand dependent (Kamai et al. (1996) Cell 84:403-414) and involves an LXXLL (SEQ ID NO:3) motif in the coactivators and the C-terminal AF-2 domain in the receptors (Heery et al. (1997) Nature 387:733-736; Torchia et al. (1997) Nature 387:677-684). To identify the domains responsible for PGC-1-PPARγ interactions, different C-terminal deletions of PGC-1 were generated as reticulocyte translation products and mixed with a […] fusion protein. Deletions of PGC-1 were made using specific restriction sites in the PGC-1 cDNA closed in pBluescript. The following restriction enzymes were used for these deletions: full-length Xhol (aa-1-797), Haell (aa 1-675) Ncol (aa 1-503), Xbal (aa 1-403), Kpnl (aa 1-338), and Stul (aa 1-292). These were then translated into vitro with an [^35S]methionine-label. One microliter of each in vitro translation reaction was resolved by SDS-PAGE and autoradiographed.\nFIG. 4 summarizes the input of both the full-length PGC-1(1-797) and the 1-675 deletion which bind to the immobilized PPARγ."}},
  "data": [
    {"molecule": "CCCCC[C@H](O)/C=C/[C@@H]1[C@H]2C/C(=C/CCCC(=O)O)C[C@H]2C[C@H]1O", "note": "[carboprostacyclin]", "values": [
      {"measurement": "ligand dependency of PGC-1 interaction with PPARδ", "setting": "PPARδ", "result": "slight ligand dependency"}
    ]},
    {"molecule": "CC(C)NCC(O)c1ccc(O)c(O)c1", "note": "(stereo not shown) [isoproterenol]", "values": [
      {"measurement": "PGC-1 mRNA", "setting": "HIB 1B brown fat cells", "result": "sharp increase"},
      {"measurement": "UCP-1 mRNA", "setting": "HIB 1B brown fat cells", "result": "sharp increase"}
    ]},
    {"molecule": "CC1=C(/C=C/C(C)=C/C=C/C(C)=C/C(=O)O)C(C)(C)CCC1", "note": "[all-trans retinoic acid]", "values": [
      {"measurement": "ligand dependency of PGC-1 interaction with the retinoic acid receptor", "setting": "retinoic acid receptor", "result": "strong ligand dependency"}
    ]},
    {"molecule": "CCCCC/C=C\\C[C@@H](O)/C=C/C=C/C=C\\[C@@H](O)CCCC(=O)O", "note": "[leukotriene-4]", "values": [
      {"measurement": "ligand dependency of PGC-1 interaction with PPARα", "setting": "PPARα", "result": "slight ligand dependency"}
    ]},
    {"molecule": "PGC-1 1-292: C-terminal deletion of PGC-1, aa 1-292, still contains the LXXLL motif (protein) MAWDMCSQDSVWSDIECAALVGEDQPLCPDLPELDLSELDVNDLDTDSFLGGLKWCSDQSEIISNQYNNEPANIFEKIDEENEANLLAVLTETLDSLPVDEDGLPSFDALTDGAVTTDNEASPSSMPDGTPPPQEAEEPSLLKKLLLAPANTQLSYNECSGLSTQNHAANHTHRIRTNPAIVKTENSWSNKAKSICQQQKPQRRPCSELLKYLTTNDDPPHTKPTENRNSSRDKCASKKKSHTQPQSQHAQAKPTTLSLPLTPESPNDPKGSPFENKTIERTLSVELSGTAG", "values": [
      {"measurement": "percentage of input material that bound to PPARγ", "setting": "PPARγ", "result": "completely loses the ability to interact with PPARγ"}
    ]},
    {"molecule": "PGC-1 1-503: C-terminal deletion of PGC-1, aa 1-503, lacks the SR and RNA-binding domains (protein) MAWDMCSQDSVWSDIECAALVGEDQPLCPDLPELDLSELDVNDLDTDSFLGGLKWCSDQSEIISNQYNNEPANIFEKIDEENEANLLAVLTETLDSLPVDEDGLPSFDALTDGAVTTDNEASPSSMPDGTPPPQEAEEPSLLKKLLLAPANTQLSYNECSGLSTQNHAANHTHRIRTNPAIVKTENSWSNKAKSICQQQKPQRRPCSELLKYLTTNDDPPHTKPTENRNSSRDKCASKKKSHTQPQSQHAQAKPTTLSLPLTPESPNDPKGSPFENKTIERTLSVELSGTAGLTPPTTPPHKANQDNPFKASPKLKPSCKTVVPPPTKRARYSECSGTQGSHSTKKGPEQSELYAQLSKSSGLSRGHEERKTKRPSLRLFGDHDYCQSLNSKTDILINISQELQDSRQLDFKDASCDWQGHICSSTDSGQCYLRETLEASKQVSPCSTRKQLQDQEIRAELNKHFGHPCQAVFDDKSDKTSELRDGDFSNEQFSKLPVFINSG", "values": [
      {"measurement": "percentage of input material that bound to PPARγ", "setting": "PPARγ", "result": 18, "unit": "%"}
    ]}
  ]
}
